Assay results as given in US8710233B2 (Gruenenthal GmbH, priority 2005, dated 2014).
pIC50, pKi: −log10 of the molar value. Where two headings read alike, the source gives them in different places.

What was measured:
Type in all cases: cell-based
[1] = target: T1, vanilloid receptor 1 (VR1/TRPV1) of the rat species (Rattus norvegicus, UniProt O35433); assay: FLIPR Ca2+ influx assay on rat dorsal root ganglia cells (pharmacological method I)
T1 construct: The spinal column is removed from decapitated rats; from tissue; host or cells: primary cells dissociated from rat dorsal root ganglia
Method in brief: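 Primary rat dorsal root ganglion cells loaded with 2 μM Fluo-4, Ca2+ influx read on FLIPR as peak fluorescence. Triplicates, at least 3 independent experiments.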

vanilloid receptor (VR1) = target: T2, vanilloid receptor (VR1) (Homo sapiens, UniProt Q8NER1); assay: FLIPR Ca2+ influx assay on CHO K1 cells transfected with the VR1 gene (pharmacological method II)
T2 construct: expressed in transfected cells; host or cells: CHO K1 cells (ECACC), stably transfected

VR1/TRPV1 receptor = VR1/TRPV1 receptor (Homo sapiens, UniProt Q8NER1); assay: IC50 (human) after pH stimulus; settings: for inhibition at 1 µM / inhibition in percent, IC50 (human) after pH stimulus: ne = no effect, @ 1 μM
[2] = table 4, capsaicin, read-out: Ki (rat) Cap.
[3] = table 4, capsaicin, read-out: Ki (human) Cap.
[4] = Ki (rat) Cap., table 4, capsaicin
[5] = read-out: inhibition in percent, IC50 (human) after pH stimulus
[6] = Table 2, displacement of capsaicin (100 nM), Cheng-Prusoff, read-out: Ki (human)
[7] = Table 2, displacement of capsaicin (100 nM), Cheng-Prusoff, read-out: Ki (rat)

T1 sequence (O35433 whole entry): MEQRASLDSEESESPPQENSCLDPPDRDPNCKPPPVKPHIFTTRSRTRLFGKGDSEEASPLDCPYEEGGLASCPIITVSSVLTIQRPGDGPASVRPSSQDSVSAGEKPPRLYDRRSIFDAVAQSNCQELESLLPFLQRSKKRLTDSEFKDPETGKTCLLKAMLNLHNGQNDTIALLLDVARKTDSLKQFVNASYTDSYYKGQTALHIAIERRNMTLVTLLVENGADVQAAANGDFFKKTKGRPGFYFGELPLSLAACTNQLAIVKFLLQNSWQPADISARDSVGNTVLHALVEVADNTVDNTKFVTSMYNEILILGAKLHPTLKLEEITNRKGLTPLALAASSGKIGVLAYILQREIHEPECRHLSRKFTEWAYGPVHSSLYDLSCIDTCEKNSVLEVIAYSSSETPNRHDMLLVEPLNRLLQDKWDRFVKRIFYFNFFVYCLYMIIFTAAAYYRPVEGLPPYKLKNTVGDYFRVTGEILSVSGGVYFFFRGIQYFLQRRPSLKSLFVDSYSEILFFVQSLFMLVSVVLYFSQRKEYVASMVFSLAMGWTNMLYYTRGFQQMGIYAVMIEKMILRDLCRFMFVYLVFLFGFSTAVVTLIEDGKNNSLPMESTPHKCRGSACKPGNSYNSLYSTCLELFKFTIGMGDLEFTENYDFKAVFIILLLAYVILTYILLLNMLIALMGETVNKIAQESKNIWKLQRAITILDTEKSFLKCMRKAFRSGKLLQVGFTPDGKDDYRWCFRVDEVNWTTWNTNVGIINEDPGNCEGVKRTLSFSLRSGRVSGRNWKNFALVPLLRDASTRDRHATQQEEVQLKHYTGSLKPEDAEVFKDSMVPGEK
VR1/TRPV1 receptor, sequence (Q8NER1 whole entry): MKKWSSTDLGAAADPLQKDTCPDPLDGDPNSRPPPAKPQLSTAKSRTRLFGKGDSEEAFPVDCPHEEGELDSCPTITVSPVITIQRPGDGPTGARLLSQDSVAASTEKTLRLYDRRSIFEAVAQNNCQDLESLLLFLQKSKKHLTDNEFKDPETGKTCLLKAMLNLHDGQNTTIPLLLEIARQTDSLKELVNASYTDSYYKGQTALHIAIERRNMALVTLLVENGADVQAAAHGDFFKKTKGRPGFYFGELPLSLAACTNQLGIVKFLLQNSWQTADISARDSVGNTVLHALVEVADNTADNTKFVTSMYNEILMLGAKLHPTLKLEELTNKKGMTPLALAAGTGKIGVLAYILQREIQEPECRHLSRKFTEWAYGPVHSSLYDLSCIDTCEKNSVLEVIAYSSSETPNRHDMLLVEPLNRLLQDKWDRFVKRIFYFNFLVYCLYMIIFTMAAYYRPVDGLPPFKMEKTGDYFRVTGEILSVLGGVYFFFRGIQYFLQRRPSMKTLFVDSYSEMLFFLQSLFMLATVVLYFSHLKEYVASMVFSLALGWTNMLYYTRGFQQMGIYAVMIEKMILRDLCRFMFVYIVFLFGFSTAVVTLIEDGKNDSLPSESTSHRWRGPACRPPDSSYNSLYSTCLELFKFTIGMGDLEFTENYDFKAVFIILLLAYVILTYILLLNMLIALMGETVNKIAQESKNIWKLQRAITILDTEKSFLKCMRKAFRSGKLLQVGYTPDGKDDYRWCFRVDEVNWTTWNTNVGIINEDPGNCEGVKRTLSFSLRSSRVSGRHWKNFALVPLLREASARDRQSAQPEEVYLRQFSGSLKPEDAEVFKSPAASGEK
T2 sequence (Q8NER1 whole entry): as above

Row | pKi [1, 2] | pKi (vanilloid receptor (VR1); [3]) | pIC50 (VR1/TRPV1 receptor; table 4) | SMILES | also measured
1 | 9.10 | 9.22 | 7.42 | CCCN(CCC)c1nc(C(F)(F)Cl)ccc1CNC(=O)C(C)c1ccc(NS(C)(=O)=O)c(F)c1 (stereo not shown) [Example 186, N-[6-(chloro-difluoro-methyl)-2-dipropylamino-pyridin-3-ylmethyl]-2-(3-fluoro-4-methylsulfonamido-phenyl)-propionamide] | 
2 | 9.40 | 8.89 | 7.86 | CC(C(=O)NCc1ccc(C(F)(F)F)cc1N1CCC(C)(C)CC1)c1ccc(NS(C)(=O)=O)c(F)c1 (stereo not shown) [Example 218, N-[2-(4,4-dimethyl-piperidin-1-yl)-4-trifluoromethyl-benzyl]-2-(3-fluoro-4-methylsulfonamido-phenyl)-propionamide] | 
3 |  | 7.53 |  | CC(C(=O)NCc1ccc(C(F)(F)F)nc1OCc1ccccn1)c1ccc(NS(C)(=O)=O)c(F)c1 (stereo not shown) [Example 202, 2-(3-fluoro-4-methylsulfonamido-phenyl)-N-[2-(pyridin-2-ylmethoxy)-6-trifluoromethyl-pyridin-3-ylmethyl]-propionamide] | pKi [1, 4]: 7.61; inhibition at 0.1 µM (VR1/TRPV1 receptor; @ 0.1 μM, read-out: inhibition in percent, IC50 (human) after pH stimulus): 16%; inhibition at 1 µM (VR1/TRPV1 receptor; [5]): 30%
4 | 7.39 | 7.38 |  | CC1CCN(c2nc(C(F)(F)F)ccc2CNC(=O)C(C)c2ccc(NS(=O)(=O)N(C)C)c(F)c2)CC1 (stereo not shown) [Example 288, 2-(4-dimethylaminsulfonylamino-3-fluoro-phenyl)-N-(4-methyl-6′-trifluoromethyl-3,4,5,6-tetrahydro-2H-[1,2′]bipyridinyl-3′-ylmethyl)-propionamide] | inhibition in percent, IC50 (human) after pH stimulus (VR1/TRPV1 receptor): ne @ 1 μM
5 | 8.89 | 9.05 | 7.00 | CC(C(=O)NCc1ccc(C(F)(F)F)cc1N1CCC(c2ccc(F)cc2)CC1)c1ccc(NS(C)(=O)=O)c(F)c1 (stereo not shown) [Example 255, 2-(3-fluoro-4-methylsulfonamido-phenyl)-N-{2-[4-(4-fluoro-phenyl)-piperidin-1-yl]-4-trifluoromethyl-benzyl}-propionamide] | 
6 |  |  |  | CC(C)Oc1nc(C(F)(F)F)ccc1CNC(=O)C(C)c1ccc(NS(C)(=O)=O)c(F)c1 (stereo not shown) [Example 20, 2-(3-fluoro-4-(methylsulfonamido)phenyl)-N-((2-isopropoxy-6-(trifluoromethyl)pyridin-3-yl)methyl)propanamide] | pKi ([1]; Ki (rat), Table 2, displacement of capsaicin (100 nM), Cheng-Prusoff): 8.27; pKi (vanilloid receptor (VR1); [6]): 8.68; pIC50 (VR1/TRPV1 receptor; Table 2): 7.03
7 | 9.22 | 9.40 | 7.70 | CC(C(=O)NCc1ccc(C(F)(F)F)cc1N1CCC(C(F)(F)F)CC1)c1ccc(NS(C)(=O)=O)c(F)c1 (stereo not shown) [Example 230, 2-(3-fluoro-4-methylsulfonamido-phenyl)-N-[4-trifluoromethyl-2-(4-trifluoromethyl-piperidin-1-yl)-benzyl]-propionamide] | 
8 | 7.75 | 8.21 | 6.54 | CC(C(=O)NCc1ccc(C(F)(F)F)nc1N1CCC2(CC1)CC(c1ccccc1)=NO2)c1ccc(NS(C)(=O)=O)c(F)c1 (stereo not shown) [Example 252, 2-(3-fluoro-4-methylsulfonamido-phenyl)-N-[2-(3-phenyl-1-oxa-2,8-diaza-spiro[4.5]dec-2-en-8-yl)-6-trifluoromethyl-pyridin-3-ylmethyl]-propionamide] | 
9 |  |  |  | CC(C(=O)NCc1ccc(C(F)(F)F)nc1N1CCN(Cc2ccccc2)CC1)c1ccc(NS(C)(=O)=O)c(F)c1 (stereo not shown) [Example 73, N-((2-(4-benzylpiperazin-1-yl)-6-(trifluoromethyl)pyridin-3-yl)methyl)-2-(3-fluoro-4-(methylsulfonamido)phenyl)propanamide] | pKi [1, 7]: 8.18; pKi (vanilloid receptor (VR1); [6]): 8.06; pIC50 (VR1/TRPV1 receptor; Table 2): 6.20
10 | 9.70 | 9.70 | 8.12 | CC(C(=O)NCc1ccc(C(F)(F)F)nc1-c1ccc(F)c(Cl)c1)c1ccc(NS(C)(=O)=O)c(F)c1 (stereo not shown) [Example 118] | 
11 | 7.52 | 6.85 | 5.46 | CC(C(=O)NCc1ccc(C(F)(F)F)nc1OCc1cccnc1)c1ccc(NS(C)(=O)=O)c(F)c1 (stereo not shown) [Example 211, 2-(3-fluoro-4-methylsulfonamido-phenyl)-N-[2-(pyridin-3-ylmethoxy)-6-trifluoromethyl-pyridin-3-ylmethyl]-propionamide] | 
12 |  | 8.68 | 6.74 | CC(C(=O)NCc1ccc(C(F)(F)F)nc1OCc1ccc(C(C)(C)C)cc1)c1ccc(NS(C)(=O)=O)c(F)c1 (stereo not shown) [Example 244, N-[2-(4-tert-butyl-benzyloxy)-6-trifluoromethyl-pyridin-3-ylmethyl]-2-(3-fluoro-4-methylsulfonamido-phenyl)-propionamide] | pKi [1, 4]: 8.96
13 | 7.32 | 7.26 |  | CC1CCN(c2nc(C(F)(F)F)ccc2CCNC(=O)C(C)c2ccc(NS(C)(=O)=O)c(F)c2)CC1 (stereo not shown) [Example 284, 2-(3-fluoro-4-methylsulfonamido-phenyl)-N-[2-(4-methyl-6′-trifluoromethyl-3,4,5,6-tetrahydro-2H-[1,2′]bipyridinyl-3′-yl)-ethyl]-propionamide] | inhibition in percent, IC50 (human) after pH stimulus (VR1/TRPV1 receptor): ne @ 1 μM
14 | 8.29 | 8.11 | 6.62 | CC(C(=O)NCc1ccc(C(F)(F)F)nc1OC1CCC(C(C)(C)C)CC1)c1ccc(NS(C)(=O)=O)c(F)c1 (stereo not shown) [Example 170, N-[2-(4-tert-butyl-cyclohexyloxy)-6-trifluoromethyl-pyridin-3-ylmethyl]-2-(3-fluoro-4-methylsulfonamido-phenyl)-propionamide] | 
15 | 9.52 | 9.22 |  | CCCCCCOc1nc(C(F)(F)F)ccc1CNC(=O)C(C)c1ccc(NS(C)(=O)=O)c(C)c1 (stereo not shown) [Example 257, N-(2-hexyloxy-6-trifluoromethyl-pyridin-3-ylmethyl)-2-(4-methylsulfonamido-3-methyl-phenyl)-propionamide] | inhibition at 1 µM (VR1/TRPV1 receptor; [5]): 67%
16 | 9.52 | 9.10 | 7.64 | CCCCCCOc1nc(C(F)(F)Cl)ccc1CNC(=O)C(C)c1ccc(NS(C)(=O)=O)c(F)c1 (stereo not shown) [Example 180, N-[6-(chloro-difluoro-methyl)-2-hexyloxy-pyridin-3-ylmethyl]-2-(3-fluoro-4-methylsulfonamido-phenyl)-propionamide] | 
17 |  |  |  | CC(C(=O)NCc1ccc(C(C)(C)C)cc1C#N)c1ccc(NS(C)(=O)=O)c(F)c1 (stereo not shown) [Example 70, N-(4-tert-butyl-2-cyanobenzyl)-2-(3-fluoro-4-(methylsulfonamido)-phenyl)propanamide] | pKi [1, 7]: 8.05; pKi (vanilloid receptor (VR1); [6]): 7.81; pIC50 (VR1/TRPV1 receptor; Table 2): 5.83
18 | 9.40 | 8.82 | 7.28 | Cc1ccc(COc2nc(C(F)(F)F)ccc2CNC(=O)C(C)c2ccc(NS(C)(=O)=O)c(F)c2)cc1 (stereo not shown) [Example 172, 2-(3-fluoro-4-methylsulfonamido-phenyl)-N-[2-(4-methyl-benzyloxy)-6-trifluoromethyl-pyridin-3-ylmethyl]-propionamide] | 

Row | SMILES | pKi [1, 2] | pKi (vanilloid receptor (VR1); [3]) | pIC50 (VR1/TRPV1 receptor; table 4) | also measured
19 | CC(C)COc1cc(C(C)(C)C)ccc1CNC(=O)C(C)c1ccc(NS(C)(=O)=O)c(F)c1 (stereo not shown) [Example 133, N-(4-tert-butyl-2-isobutoxy-benzyl)-2-(3-fluoro-4-methylsulfonamido-phenyl)-propionamide] | 9.15 | 8.68 |  | inhibition at 1 µM (VR1/TRPV1 receptor; [5]): 62%
20 | CC(C)COc1nc(C(F)(F)Cl)ccc1CNC(=O)C(C)c1ccc(NS(C)(=O)=O)c(F)c1 (stereo not shown) [Example 208, N-[6-(chloro-difluoro-methyl)-2-isobutoxy-pyridin-3-ylmethyl]-2-(3-fluoro-4-methylsulfonamido-phenyl)-propionamide] | 9.30 | 9.22 | 7.41 | 
